Series [1] concerns the target T1, human type 1 glycine transporter (GlyT1) (Homo sapiens, UniProt P48067).
T1 construct: Glioma T98G cells endogenously expressing human type 1 glycine transporter (GlyT1) were used; endogenous in cells; host or cells: T98G human glioma cells
T1 sequence (P48067 1-706): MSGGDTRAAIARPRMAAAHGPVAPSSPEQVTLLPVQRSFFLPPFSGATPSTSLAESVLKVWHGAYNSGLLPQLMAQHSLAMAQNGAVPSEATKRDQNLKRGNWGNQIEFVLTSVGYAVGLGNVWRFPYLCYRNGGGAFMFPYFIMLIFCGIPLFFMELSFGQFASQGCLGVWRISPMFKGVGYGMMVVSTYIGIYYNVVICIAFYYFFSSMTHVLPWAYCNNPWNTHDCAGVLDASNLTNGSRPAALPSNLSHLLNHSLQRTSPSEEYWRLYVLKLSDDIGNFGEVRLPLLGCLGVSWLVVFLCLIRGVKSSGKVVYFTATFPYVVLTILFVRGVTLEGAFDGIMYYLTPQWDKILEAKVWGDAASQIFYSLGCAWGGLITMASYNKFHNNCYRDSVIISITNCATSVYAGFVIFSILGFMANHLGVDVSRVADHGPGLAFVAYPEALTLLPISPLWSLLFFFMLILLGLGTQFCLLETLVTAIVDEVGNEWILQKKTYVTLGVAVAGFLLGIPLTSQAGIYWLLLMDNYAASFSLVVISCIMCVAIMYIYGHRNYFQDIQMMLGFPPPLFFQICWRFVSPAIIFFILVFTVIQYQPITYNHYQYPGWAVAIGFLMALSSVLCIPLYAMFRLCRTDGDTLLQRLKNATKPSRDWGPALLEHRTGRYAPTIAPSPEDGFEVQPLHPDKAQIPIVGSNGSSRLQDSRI
Put plainly: Glycine uptake inhibition experiment ([3H]glycine uptake in T98G cells). Format: cell-based. The conditions noted are these: [3H]glycine 250 nM, 15 min, room temperature. The protocol:
A glycine uptake experiment was conducted as described in Neuron, 8, 927-935, 1992. Glioma T98G cells endogenously expressing human type 1 glycine transporter (GlyT1) were used. T98G cells were seeded in a 96-well plate at 2.0×10^4 cells/well and cultured overnight in a CO2 incubator. A test compound was dissolved in a 100% DMSO solution and then dissolved in 10 mM HEPES buffer (pH 7.4) containing 150 mM sodium chloride, 1 mM calcium chloride, 5 mM potassium chloride, 1 mM magnesium chloride, 10 mM glucose and 0.2% bovine serum albumin. After removing the cell culture medium, the cells were pre-treated with the test compound for 10 minutes. Subsequently, the test compound and [^3H]glycine (final concentration: 250 nM) were added to the cells and incubated at room temperature for 15 minutes. After the incubation, the extracellular solution was aspirated with a manifold to remove the excess labeled glycine existing outside the cells, and the cells were then lysed with 0.5 M aqueous sodium hydroxide. The amount of glycine uptake was determined by measuring radioactivity in the cell lysate using a liquid scintillation counter. Glycine uptake in the presence of 10 μM ALX5407 was defined as non-specific uptake, and the value calculated by subtracting this non-specific uptake from the total uptake in the absence of 10 μM ALX5407 was defined as specific uptake. Moreover, an inhibition curve was obtained for each test compound at concentrations of […] to calculate the glycine uptake inhibitory activity (IC50 value) of each test substance.
It should be noted that ALX5407 is a HCl salt of N-[(3R)-3-([1,1′-biphenyl]-4-yloxy)-3-(4-fluorophenyl)propyl]-N-methylglycine.

The target in the next series is T2, P-glycoprotein (P-gp) (Homo sapiens, UniProt P08183).
T2 construct: expressed in transfected cells; host or cells: LLC-GA5-COL300 (pig kidney LLC-PK1 cells expressing human MDR1)
Put plainly: Test for substrate recognition by P-gp (LLC-GA5-COL300 cells). The conditions noted are these: 10 μM, Human MDR1-expressing LLC-GA5-COL300 cells, Apical to Basolateral and Basolateral to Apical. Type of series: in vitro ADME. From the text: In the case of drugs that act on the central nervous system, it is generally important for such drugs to be transferred from blood into brain for development of their efficacy. In the blood-brain barrier, there is found P-glycoprotein (P-gp), which is a typical member of the efflux transporters that control drug penetration; and P-gp inhibits the penetration of its substrate drugs into the brain. Thus, in developing a drug, recognition performance as a P-gp substrate can be used as an indicator of brain penetration.
A test for substrate recognition by P-gp was conducted as described in J. Pharmacol. Exp. Ther. (1992) Vol. 263, No. 2, 840-845 and J. Biol. Chem. (1992) Vol. 267, No. 34, 24248-24252. Specifically, LLC-GA5-COL300 cells (i.e., a Human MDR1-expressing system originating from a pig kidney-derived cultured renal epithelial cell line, LLC-PK1) were used after being cultured for 4 days on trans wells, and the medium in each well was replaced by Hank's balanced salt solution (HBSS) immediately before use in the test. After a test compound solution (i.e., a DMSO solution of a test compound, which was further diluted with HBSS and adjusted to a final concentration of 10 μM) was added to the Donor side of the LLC-GA5-COL300 cells, aliquots of HBSS were sampled over time from the Acceptor side to determine the test compound concentration in each collected sample by LC-MS/MS.
The membrane permeability coefficient (×10^−6 cm/sec) was calculated by the accumulated amount of the compound into the Acceptor side for both directions, Apical to Basolateral and Basolateral to Apical. and the ratio of these coefficients (Efflux Ratio) was then used to evaluate substrate recognition by P-gp.

The subject of a further series is male Sprague-Dawley rats. Kind of series: Social recognition test (MK-801-treated rats). Type of series: in vivo. The following applies: rat; for Ratio (second exploration time/first exploration time): MK-801 0.1 mg/kg i.p. As for the experimental part:
This experiment was performed using male Sprague-Dawley rats according to the reported method (Shimazaki et al., Psychopharmacology, 209, 263-270, 2010). Adult rats (9 weeks old) received intraperitoneal administration of MK-801 (0.1 mg/kg), and were immediately placed in test cages and acclimated for 30 minutes. Thereafter, juvenile rats (4 weeks old) were placed in the same test cages, where juvenile rats and adult rats were left for 5 minutes, during which the time it took for the adult rats to show social behavior (sniffing, grooming, following) to the juvenile rats was measured (first exploration time). Then, the juvenile rats were removed from the test cages and returned to their home cages. After 30 minutes, the same juvenile rats that were used in the first exploration were placed in the test cages, and the time it took for the adult rats to show social behavior (sniffing, grooming, following) to the juvenile rats during a 5-minute period was measured (second exploration time). The social recognition was expressed as the ratio of second exploration time to first exploration time. The test substance (Compound 10) was orally administered one hour before the start of first exploration. The vehicle group was administered a 0.5% methyl cellulose solution.

The mark [2] stands for this setting: read-out: glycine uptake inhibitory activity (IC50 value).

The values below come from patent US20120116095A1, “GLYCINE TRANSPORTER INHIBITORS” (TAISHO PHARMACEUTICAL C0., LTD., priority 2009, published 2012).

Where two headings read alike, the source gives them in different places.

T2 sequence (P08183 whole entry): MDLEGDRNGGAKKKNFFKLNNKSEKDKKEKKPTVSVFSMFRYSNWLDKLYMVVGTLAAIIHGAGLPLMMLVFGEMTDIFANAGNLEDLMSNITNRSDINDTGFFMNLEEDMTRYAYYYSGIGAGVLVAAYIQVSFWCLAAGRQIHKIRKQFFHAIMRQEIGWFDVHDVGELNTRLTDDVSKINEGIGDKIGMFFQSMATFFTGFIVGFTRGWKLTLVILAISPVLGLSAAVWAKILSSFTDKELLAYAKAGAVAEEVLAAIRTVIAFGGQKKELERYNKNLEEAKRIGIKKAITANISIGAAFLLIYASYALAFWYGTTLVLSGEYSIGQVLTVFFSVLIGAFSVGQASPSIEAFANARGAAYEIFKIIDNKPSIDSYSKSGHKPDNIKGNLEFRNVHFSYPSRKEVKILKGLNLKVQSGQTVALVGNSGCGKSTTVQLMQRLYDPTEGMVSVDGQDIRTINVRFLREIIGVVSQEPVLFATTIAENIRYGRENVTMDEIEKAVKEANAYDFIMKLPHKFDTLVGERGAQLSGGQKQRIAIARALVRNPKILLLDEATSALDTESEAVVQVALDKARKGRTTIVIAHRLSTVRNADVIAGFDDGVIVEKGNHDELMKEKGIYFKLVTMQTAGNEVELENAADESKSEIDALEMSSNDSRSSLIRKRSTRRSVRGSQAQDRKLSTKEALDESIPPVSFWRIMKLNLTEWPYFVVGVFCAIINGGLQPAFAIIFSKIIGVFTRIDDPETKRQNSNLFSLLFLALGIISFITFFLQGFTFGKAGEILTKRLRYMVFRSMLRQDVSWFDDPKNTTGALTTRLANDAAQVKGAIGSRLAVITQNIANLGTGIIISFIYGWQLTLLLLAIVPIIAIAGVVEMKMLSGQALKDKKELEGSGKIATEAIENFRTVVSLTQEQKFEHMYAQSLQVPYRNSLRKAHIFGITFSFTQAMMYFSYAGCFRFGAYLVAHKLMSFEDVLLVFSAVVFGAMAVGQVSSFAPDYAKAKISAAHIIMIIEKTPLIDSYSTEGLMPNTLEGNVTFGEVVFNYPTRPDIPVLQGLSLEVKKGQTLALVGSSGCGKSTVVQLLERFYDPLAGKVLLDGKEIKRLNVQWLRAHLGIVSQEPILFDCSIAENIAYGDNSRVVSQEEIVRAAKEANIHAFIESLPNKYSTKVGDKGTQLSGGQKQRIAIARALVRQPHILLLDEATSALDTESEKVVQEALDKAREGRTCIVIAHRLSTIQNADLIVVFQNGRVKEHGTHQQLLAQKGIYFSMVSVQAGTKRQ

Turning to `CC(C)N(Cc1ccc(F)c(-c2ccc(OC(F)(F)F)cc2)c1)C(=O)c1cn(C)cn1` [Compound 10, N-{[6-Fluoro-4′-(trifluoromethoxy)biphenyl-3-yl]methyl}-1-methyl-N-(propan-2-yl)-1H-imidazole-4-carboxamide], the concentration for half-maximal inhibition (IC50) in series [1] (setting [2]) was determined as 14.8 nM. On P-glycoprotein (P-gp), the “recognition as a P-gp substrate (Efflux Ratio criteria)” value is on record as “not to be recognized as a P-gp substrate”. The “Ratio (second exploration time/first exploration time)” value with male Sprague-Dawley rats (0.1 mg/kg orally one hour before first exploration, p<0.05) was 0.65 ± 0.05 ^p<0.05; in the series with male Sprague-Dawley rats (0.3 mg/kg orally one hour before first exploration, p<0.01), 0.60 ± 0.06 ^p<0.01. Moreover, in the series with male Sprague-Dawley rats (compared to the vehicle group, oral), the “effect on cognitive functions (social recognition, in words)” value was “enhancing effect on cognitive functions”.
On to `CC(C)N(Cc1ccc(F)c(-c2ccccc2)c1)C(=O)c1cn(C)cn1` [Compound 22], for which the half-inhibitory concentration (IC50) in series [1] (setting [2]) came to 11.6 nM. Besides, the “recognition as a P-gp substrate (Efflux Ratio criteria)” value at P-glycoprotein (P-gp) is listed as “not to be recognized as a P-gp substrate”.
For `CC(C)N(Cc1ccc(F)c(-c2ccc(F)cc2)c1)C(=O)c1cn(C)cn1` [Compound 18] the same measures were 8.89 nM and “not to be recognized as a P-gp substrate”.
On to `CC(C)N(Cc1ccc(F)c(-c2ccc(OC(F)(F)F)cc2)c1)C(=O)c1c[nH]cn1` [Compound 54], for which the IC50 in series [1] (read-out: glycine uptake inhibitory activity (IC50 value), bounds) was above 1000 nM. In addition, the “recognition as a P-gp substrate (Efflux Ratio criteria)” value at P-glycoprotein (P-gp) was “not to be recognized as a P-gp substrate”.
